How the values were obtained:
[1] = biological target: T1, HiBit-BRG1 fusion protein (Homo sapiens, UniProt P51532); experiment: HiBiT-BRG1 cell-based degradation assay (Nano-Glo HiBiT Lytic Detection, 24 h); conditions: stable HeLa cell line expressing HiBit-BRG1 and LgBit; for Dmax: read-out: BRG1 HiBit Degradation Maximum (%); for DC50: read-out: BRMG1 HiBit Degradation IC50
T1 construct: expressed in transfected cells
Procedure: (§1) Procedure: A stable HeLa cell line expressing HiBiT-BRM was generated. On day 0, 5000 cells were seeded in 40 μL of media into each well of 384-well cell culture plates. On day 1, cells were treated with 120 nL DMSO or 120 nL of 3-fold serially DMSO-diluted compounds (10 points in duplicate with 30 μM as final top dose). Subsequently plates were incubated for 24 h in a standard tissue culture incubator and equilibrated at room temperature for 15 minutes. Nano-Glo HiBiT Lytic Detection System (Promega N3050) reagent was freshly prepared and 20 ul was added to each well. Upon addition of this LgBit-containing reagent, the HiBiT and LgBiT proteins associate to form the luminescent NanoBiT Iuciferase. The plates were shaken for 10 minutes at room temperature and the bioluminescence read using an EnVision plate reader (PerkinElmer).
For measurement of BRG1 degradation, a stable HeLa cell line expressing HiBit-BRG1 and LgBit was generated. The same protocol as above was then followed.
(§2) The degradation % was calculated using the following formula: % degradation=100%-100%×(LumSample−LumLC)/(LumHC−LumLC). DMSO treated cells are employed as High Control (HC) and 2 μM of a known BRM/BRG1 degrader standard treated cells are employed as Low Control (LC).

[2] = biological target: T2, HiBit-BRM fusion protein (Homo sapiens, UniProt P51531); experiment: HiBiT-BRM cell-based degradation assay (Nano-Glo HiBiT Lytic Detection, 24 h); conditions: stable HeLa cell line expressing HiBiT-BRM; for DC50: read-out: BRM HiBit Degradation IC50
T2 construct: expressed in transfected cells
Procedure: as §1, §2

T1 sequence (P51532 whole entry, the tested form may be a part): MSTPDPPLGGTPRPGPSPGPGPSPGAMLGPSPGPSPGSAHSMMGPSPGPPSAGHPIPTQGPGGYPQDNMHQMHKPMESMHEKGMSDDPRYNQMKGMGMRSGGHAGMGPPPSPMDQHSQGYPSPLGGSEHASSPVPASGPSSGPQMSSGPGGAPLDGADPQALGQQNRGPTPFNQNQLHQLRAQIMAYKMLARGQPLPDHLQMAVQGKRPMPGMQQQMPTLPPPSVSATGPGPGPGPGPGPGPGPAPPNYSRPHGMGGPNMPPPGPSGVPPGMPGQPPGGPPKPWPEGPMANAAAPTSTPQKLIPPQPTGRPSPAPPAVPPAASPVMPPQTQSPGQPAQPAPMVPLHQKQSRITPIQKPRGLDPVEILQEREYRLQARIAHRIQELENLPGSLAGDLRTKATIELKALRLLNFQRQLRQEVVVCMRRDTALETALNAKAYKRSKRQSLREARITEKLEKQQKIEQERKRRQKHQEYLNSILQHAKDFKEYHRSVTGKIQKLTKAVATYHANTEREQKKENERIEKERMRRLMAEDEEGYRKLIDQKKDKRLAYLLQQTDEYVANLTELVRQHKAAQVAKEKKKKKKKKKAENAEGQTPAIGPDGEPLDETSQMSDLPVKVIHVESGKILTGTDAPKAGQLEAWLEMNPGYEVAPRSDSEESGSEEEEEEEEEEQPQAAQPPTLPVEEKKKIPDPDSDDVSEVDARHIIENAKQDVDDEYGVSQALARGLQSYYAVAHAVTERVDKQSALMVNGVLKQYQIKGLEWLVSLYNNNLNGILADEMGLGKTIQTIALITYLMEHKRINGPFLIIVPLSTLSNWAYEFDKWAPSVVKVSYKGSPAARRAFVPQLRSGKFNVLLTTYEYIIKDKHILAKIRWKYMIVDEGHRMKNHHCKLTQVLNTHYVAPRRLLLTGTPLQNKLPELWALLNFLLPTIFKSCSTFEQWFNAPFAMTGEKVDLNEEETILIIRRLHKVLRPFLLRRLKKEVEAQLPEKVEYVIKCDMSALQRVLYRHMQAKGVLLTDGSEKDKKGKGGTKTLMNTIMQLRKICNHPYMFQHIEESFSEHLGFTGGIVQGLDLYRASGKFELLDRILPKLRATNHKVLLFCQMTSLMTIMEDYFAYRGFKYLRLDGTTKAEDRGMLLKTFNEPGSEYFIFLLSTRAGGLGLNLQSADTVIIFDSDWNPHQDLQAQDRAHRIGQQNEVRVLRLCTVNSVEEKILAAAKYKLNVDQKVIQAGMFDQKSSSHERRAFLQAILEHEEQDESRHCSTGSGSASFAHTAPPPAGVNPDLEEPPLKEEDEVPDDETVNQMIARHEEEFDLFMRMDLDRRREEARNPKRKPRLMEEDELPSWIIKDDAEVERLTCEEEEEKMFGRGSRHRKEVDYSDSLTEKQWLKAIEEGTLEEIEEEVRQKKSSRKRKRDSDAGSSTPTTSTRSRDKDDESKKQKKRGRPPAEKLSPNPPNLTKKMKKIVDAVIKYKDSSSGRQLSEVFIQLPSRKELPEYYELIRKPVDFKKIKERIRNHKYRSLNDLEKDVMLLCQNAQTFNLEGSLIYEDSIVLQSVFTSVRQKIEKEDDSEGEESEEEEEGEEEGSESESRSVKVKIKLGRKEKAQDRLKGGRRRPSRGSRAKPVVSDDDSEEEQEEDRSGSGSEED
T2 sequence (P51531 whole entry, the tested form may be a part): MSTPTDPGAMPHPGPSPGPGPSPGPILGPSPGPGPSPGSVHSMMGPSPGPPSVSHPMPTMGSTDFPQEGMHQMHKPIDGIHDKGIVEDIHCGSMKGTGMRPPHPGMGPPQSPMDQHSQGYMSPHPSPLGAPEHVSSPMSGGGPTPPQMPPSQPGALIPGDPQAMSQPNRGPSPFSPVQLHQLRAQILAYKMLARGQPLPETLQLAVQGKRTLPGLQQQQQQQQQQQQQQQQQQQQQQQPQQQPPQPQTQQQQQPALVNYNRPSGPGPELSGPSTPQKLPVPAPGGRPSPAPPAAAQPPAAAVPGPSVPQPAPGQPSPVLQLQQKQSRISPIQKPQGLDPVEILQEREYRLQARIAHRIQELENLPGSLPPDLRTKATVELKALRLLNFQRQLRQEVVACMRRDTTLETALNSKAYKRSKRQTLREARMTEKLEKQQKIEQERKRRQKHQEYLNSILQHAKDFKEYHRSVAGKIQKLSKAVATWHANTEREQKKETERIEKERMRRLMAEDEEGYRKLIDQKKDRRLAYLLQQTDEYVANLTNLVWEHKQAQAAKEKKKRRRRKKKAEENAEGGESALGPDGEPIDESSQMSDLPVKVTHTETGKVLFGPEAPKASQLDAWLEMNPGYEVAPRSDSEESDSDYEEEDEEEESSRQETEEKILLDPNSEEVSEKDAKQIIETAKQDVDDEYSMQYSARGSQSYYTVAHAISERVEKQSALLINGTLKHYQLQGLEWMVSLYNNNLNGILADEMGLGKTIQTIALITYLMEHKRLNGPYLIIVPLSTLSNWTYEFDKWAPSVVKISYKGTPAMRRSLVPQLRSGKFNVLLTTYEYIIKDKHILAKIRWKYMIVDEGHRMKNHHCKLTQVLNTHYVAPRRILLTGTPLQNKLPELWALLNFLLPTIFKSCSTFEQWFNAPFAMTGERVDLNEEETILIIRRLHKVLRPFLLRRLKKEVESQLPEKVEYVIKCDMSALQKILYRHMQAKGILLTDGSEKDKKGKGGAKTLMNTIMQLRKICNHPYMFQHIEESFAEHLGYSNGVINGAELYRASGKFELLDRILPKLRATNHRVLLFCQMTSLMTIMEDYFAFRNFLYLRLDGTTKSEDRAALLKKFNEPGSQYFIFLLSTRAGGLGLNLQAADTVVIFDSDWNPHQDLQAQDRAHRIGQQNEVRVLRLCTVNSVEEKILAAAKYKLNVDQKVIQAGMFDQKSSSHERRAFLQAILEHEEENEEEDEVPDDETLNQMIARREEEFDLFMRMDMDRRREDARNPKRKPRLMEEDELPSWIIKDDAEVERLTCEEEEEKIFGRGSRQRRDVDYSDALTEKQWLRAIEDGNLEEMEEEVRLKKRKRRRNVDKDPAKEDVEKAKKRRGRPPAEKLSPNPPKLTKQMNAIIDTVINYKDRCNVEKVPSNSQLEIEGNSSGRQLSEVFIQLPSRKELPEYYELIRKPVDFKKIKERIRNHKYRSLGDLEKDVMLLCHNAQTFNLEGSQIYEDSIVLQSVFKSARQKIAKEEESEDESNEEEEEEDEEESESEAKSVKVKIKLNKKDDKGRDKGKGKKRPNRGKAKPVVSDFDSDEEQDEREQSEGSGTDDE

Compound	Dmax [1]	DC50 [1]	BRM HiBit Degradation Maximum (%) [2]	DC50 [2]
Cc1ncsc1-c1ccc([C@H](C)NC(=O)[C@@H]2C[C@@H](O)CN2C(=O)[C@@H](c2cc(-c3c(C)nc(N4CCC(c5sc6nnc(-c7ccccc7O)cc6c5C)CC4)nc3C)no2)C(C)C)cc1 [Compound 11, (2S,4R)-4-hydroxy-1-((R)-2-(3-(2-(4-(3-(2-hydroxyphenyl)-5-methylthieno[2,3-c]pyridazin-6-yl)piperidin-1-yl)-4,6-dimethylpyrimidin-5-yl)isoxazol-5-yl)-3-methylbutanoyl)-N-((S)-1-(4-(4-methylthiazol-5-yl)phenyl)ethyl)pyrrolidine-2-carboxamide]	> 50%	> 0.01 µM	A (“A” indicates maximum degradation ≥75%)	< 0.01 µM
Cc1ncsc1-c1ccc([C@H](C)NC(=O)[C@@H]2C[C@@H](O)CN2C(=O)[C@@H](c2cc(-c3ccnc(N4CCC(c5sc6nnc(-c7ccccc7O)cc6c5C)CC4)n3)no2)C(C)C)cc1 [Compound 58, (2S,4R)-4-hydroxy-1-((R)-2-(3-(2-(4-(3-(2-hydroxyphenyl)-5-methylthieno[2,3-c]pyridazin-6-yl)piperidin-1-yl)pyrimidin-4-yl)isoxazol-5-yl)-3-methylbutanoyl)-N-((S)-1-(4-(4-methylthiazol-5-yl)phenyl)ethyl)pyrrolidine-2-carboxamide]	> 75%	> 0.01 µM	A (“A” indicates maximum degradation ≥75%)	< 0.01 µM
Cc1ncsc1-c1ccc([C@H](C)NC(=O)[C@@H]2C[C@@H](O)CN2C(=O)[C@@H](c2cc(-c3cnc(NC45CC(c6sc7nnc(-c8ccccc8O)cc7c6C)(C4)C5)nc3)no2)C(C)C)cc1 [Compound 44, (2S,4R)-4-hydroxy-1-((R)-2-(3-(2-((3-(3-(2-hydroxyphenyl)-5-methylthieno[2,3-c]pyridazin-6-yl)bicyclo[1.1.1]pentan-1-yl)amino)pyrimidin-5-yl)isoxazol-5-yl)-3-methylbutanoyl)-N-((S)-1-(4-(4-methylthiazol-5-yl)phenyl)ethyl)pyrrolidine-2-carboxamide]	> 75%	–	A (“A” indicates maximum degradation ≥75%)	< 0.01 µM
Cc1ncsc1-c1ccc([C@H](C)NC(=O)[C@@H]2C[C@@H](O)CN2C(=O)[C@@H](c2cc(C3CCN(c4cnc(N5CCC(c6sc7nnc(-c8ccccc8O)cc7c6C)CC5)nc4)CC3)no2)C(C)C)cc1 [Compound 100, (2S,4R)-4-hydroxy-1-[(2R)-2-{3-[1-(2-{4-[3-(2-hydroxyphenyl)-5-methylthieno[2,3-c]pyridazin-6-yl]piperidin-1-yl}pyrimidin-5-yl)piperidin-4-yl]-1,2-oxazol-5-yl}-3-methylbutanoyl]-N-[(1S)-1-[4-(4-methyl-1,3-thiazol-5-yl)phenyl]ethyl]pyrrolidine-2-carboxamide]	> 50%	> 0.01 µM	A (“A” indicates maximum degradation ≥75%)	< 0.01 µM
Cc1ncsc1-c1ccc([C@H](C)NC(=O)[C@@H]2C[C@@H](O)CN2C(=O)[C@@H](c2cc(-c3cnc(N4C[C@H]5C[C@@H](C4)[C@@H]5c4cc5cc(-c6ccccc6O)nnc5s4)nc3)no2)C(C)C)cc1 [Compound 18, (2S,4R)-4-hydroxy-1-((R)-2-(3-(2-((1R,5S,6R)-6-(3-(2-hydroxyphenyl)thieno[2,3-c]pyridazin-6-yl)-3-azabicyclo[3.1.1]heptan-3-yl)pyrimidin-5-yl)isoxazol-5-yl)-3-methylbutanoyl)-N-((S)-1-(4-(4-methylthiazol-5-yl)phenyl)ethyl)pyrrolidine-2-carboxamide]	< 50%	> 1 µM	A (“A” indicates maximum degradation ≥75%)	< 0.01 µM
Cc1ncsc1-c1ccc([C@H](C)NC(=O)[C@@H]2C[C@@H](O)CN2C(=O)[C@@H](c2cc(N3CC[C@H](c4cc5nnc(-c6ccccc6O)cc5s4)C3)no2)C(C)C)cc1 [Compound 73, (2S,4R)-4-hydroxy-1-((R)-2-(3-((S)-3-(3-(2-hydroxyphenyl)thieno[3,2-c]pyridazin-6-yl)pyrrolidin-1-yl)isoxazol-5-yl)-3-methylbutanoyl)-N-((S)-1-(4-(4-methylthiazol-5-yl)phenyl)ethyl)pyrrolidine-2-carboxamide]	< 50%	–	A (“A” indicates maximum degradation ≥75%)	< 0.01 µM
Cc1ncsc1-c1ccc([C@H](C)NC(=O)[C@@H]2C[C@@H](O)CN2C(=O)[C@@H](c2cc(-c3cnc(N4CC5(CC(c6cc7nnc(-c8ccccc8O)cc7s6)C5)C4)nc3)no2)C(C)C)cc1 [Compound 17, (2S,4R)-4-hydroxy-1-((R)-2-(3-(2-(6-(3-(2-hydroxyphenyl)thieno[3,2-c]pyridazin-6-yl)-2-azaspiro[3.3]heptan-2-yl)pyrimidin-5-yl)isoxazol-5-yl)-3-methylbutanoyl)-N-((S)-1-(4-(4-methylthiazol-5-yl)phenyl)ethyl)pyrrolidine-2-carboxamide]	> 75%	> 0.01 µM	A (“A” indicates maximum degradation ≥75%)	< 0.01 µM
Cc1ncsc1-c1ccc([C@H](C)NC(=O)[C@@H]2C[C@@H](O)CN2C(=O)[C@@H](c2cc(N3CC[C@@H](c4cc5nnc(-c6ccccc6O)cc5s4)C3)no2)C(C)C)cc1 [Compound 72, (2S,4R)-4-hydroxy-1-((R)-2-(3-((R)-3-(3-(2-hydroxyphenyl)thieno[3,2-c]pyridazin-6-yl)pyrrolidin-1-yl)isoxazol-5-yl)-3-methylbutanoyl)-N-((S)-1-(4-(4-methylthiazol-5-yl)phenyl)ethyl)pyrrolidine-2-carboxamide]	< 50%	–	A (“A” indicates maximum degradation ≥75%)	< 0.01 µM
Cc1ncsc1-c1ccc([C@H](C)NC(=O)[C@@H]2C[C@@H](O)CN2C(=O)[C@@H](c2cc(N3CC4(C3)CN(c3sc5nnc(-c6ccccc6O)cc5c3C3CC3)C4)no2)C(C)C)cc1 [Compound 71, (2S,4R)-1-((R)-2-(3-(6-(5-cyclopropyl-3-(2-hydroxyphenyl)thieno[2,3-c]pyridazin-6-yl)-2,6-diazaspiro[3.3]heptan-2-yl)isoxazol-5-yl)-3-methylbutanoyl)-4-hydroxy-N—((S)-1-(4-(4-methylthiazol-5-yl)phenyl)ethyl)pyrrolidine-2-carboxamide]	< 50%	–	A (“A” indicates maximum degradation ≥75%)	< 0.01 µM
Cc1ncsc1-c1ccc([C@H](C)NC(=O)[C@@H]2C[C@@H](O)CN2C(=O)[C@@H](c2cc(N3CC4(CCC(c5sc6nnc(-c7ccccc7O)cc6c5C)CC4)C3)no2)C(C)C)cc1 [Compound 88, (2S,4R)-4-hydroxy-1-((R)-2-(3-(7-(3-(2-hydroxyphenyl)-5-methylthieno[2,3-c]pyridazin-6-yl)-2-azaspiro[3.5]nonan-2-yl)isoxazol-5-yl)-3-methylbutanoyl)-N-((S)-1-(4-(4-methylthiazol-5-yl)phenyl)ethyl)pyrrolidine-2-carboxamide]	> 75%	> 0.01 µM	A (“A” indicates maximum degradation ≥75%)	< 0.01 µM
Cc1ncsc1-c1ccc([C@H](C)NC(=O)[C@@H]2C[C@@H](O)CN2C(=O)[C@@H](c2cc(-c3ncc(N4CCC(c5sc6nnc(-c7ccccc7O)cc6c5C)CC4)cn3)no2)C(C)C)cc1 [Compound 36, (2S,4R)-4-hydroxy-1-((R)-2-(3-(5-(4-(3-(2-hydroxyphenyl)-5-methylthieno[2,3-c]pyridazin-6-yl)piperidin-1-yl)pyrimidin-2-yl)isoxazol-5-yl)-3-methylbutanoyl)-N-((S)-1-(4-(4-methylthiazol-5-yl)phenyl)ethyl)pyrrolidine-2-carboxamide]	< 50%	> 1 µM	A (“A” indicates maximum degradation ≥75%)	> 0.01 µM
Cc1cc(-c2cc([C@H](C(=O)N3C[C@H](O)C[C@H]3C(=O)N[C@@H](C)c3ccc(-c4scnc4C)cc3)C(C)C)on2)ccc1N1CCC(c2sc3nnc(-c4ccccc4O)cc3c2C)CC1 (single isomer, unassigned) [Compound 3]	< 50%	> 1 µM	A (“A” indicates maximum degradation ≥75%)	> 0.01 µM
Cc1ncsc1-c1ccc([C@H](C)NC(=O)[C@@H]2C[C@@H](O)CN2C(=O)[C@@H](c2cc(N3CCC4(CC[C@H](c5sc6nnc(-c7ccccc7O)cc6c5C)C4)CC3)no2)C(C)C)cc1 [Compound 81, (2S,4R)-4-hydroxy-1-((R)-2-(3-((S)-2-(3-(2-hydroxyphenyl)-5-methylthieno[2,3-c]pyridazin-6-yl)-8-azaspiro[4.5]decan-8-yl)isoxazol-5-yl)-3-methylbutanoyl)-N-((S)-1-(4-(4-methylthiazol-5-yl)phenyl)ethyl)pyrrolidine-2-carboxamide]	< 50%	–	A (“A” indicates maximum degradation ≥75%)	> 0.01 µM

From patent publication US20250304596A1, “PYRAZINE DERIVATIVES AND USES THEREOF” (FOGHORN THERAPEUTICS INC., priority 2022, published 2025)
